Each structure is given as a SMILES string.

Here are results for 19 molecules from patent US20240018154A1, “NEW INDAZOLE DERIVATIVES” (Hoffmann-La Roche Inc., priority 2020, published 2024).

In the test the target is T1, EGFR LRCS (BaF3-LRCS cell line) (Homo sapiens, UniProt P00533, C797S/L858R).
T1 construct: host or cells: BaF3 (BaF3-LRCS engineered line, kept under puromycin)
T1 sequence (P00533 25-1210 C797S/L858R): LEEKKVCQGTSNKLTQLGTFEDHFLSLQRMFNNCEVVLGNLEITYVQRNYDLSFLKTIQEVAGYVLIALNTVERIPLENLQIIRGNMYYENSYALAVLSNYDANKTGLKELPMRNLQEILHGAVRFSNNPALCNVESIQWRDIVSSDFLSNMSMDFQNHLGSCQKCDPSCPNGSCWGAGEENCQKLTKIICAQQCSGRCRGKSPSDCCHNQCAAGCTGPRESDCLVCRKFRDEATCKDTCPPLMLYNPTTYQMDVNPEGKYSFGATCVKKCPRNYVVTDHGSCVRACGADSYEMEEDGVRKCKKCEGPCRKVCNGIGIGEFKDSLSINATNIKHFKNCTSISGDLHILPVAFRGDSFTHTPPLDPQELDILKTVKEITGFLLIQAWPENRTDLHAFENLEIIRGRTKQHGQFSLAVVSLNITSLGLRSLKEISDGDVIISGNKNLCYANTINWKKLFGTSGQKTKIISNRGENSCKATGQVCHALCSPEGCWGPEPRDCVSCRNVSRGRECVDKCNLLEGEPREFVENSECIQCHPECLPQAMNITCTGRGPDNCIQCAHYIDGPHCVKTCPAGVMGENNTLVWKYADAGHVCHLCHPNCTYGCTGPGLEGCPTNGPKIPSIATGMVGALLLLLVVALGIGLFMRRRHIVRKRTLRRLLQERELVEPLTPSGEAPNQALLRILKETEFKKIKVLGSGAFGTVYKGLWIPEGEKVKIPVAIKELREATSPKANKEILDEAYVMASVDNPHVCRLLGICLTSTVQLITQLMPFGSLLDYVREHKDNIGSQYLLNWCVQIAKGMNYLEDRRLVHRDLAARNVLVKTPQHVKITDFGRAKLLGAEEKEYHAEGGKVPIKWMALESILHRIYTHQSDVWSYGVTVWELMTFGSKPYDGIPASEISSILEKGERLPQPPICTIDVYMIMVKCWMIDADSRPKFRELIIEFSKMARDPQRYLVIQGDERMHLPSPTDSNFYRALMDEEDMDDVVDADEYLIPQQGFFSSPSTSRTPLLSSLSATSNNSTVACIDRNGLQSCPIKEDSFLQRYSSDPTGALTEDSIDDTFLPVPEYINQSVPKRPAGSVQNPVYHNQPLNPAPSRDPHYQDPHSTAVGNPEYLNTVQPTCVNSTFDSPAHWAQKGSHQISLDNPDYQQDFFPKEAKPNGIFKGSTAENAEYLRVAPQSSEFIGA
In words: HTRF Phospho EGFR LRCS assay (cellular). It is filed as cell-based. The following applies: BaF3-LRCS cells, 4 hours incubation with compound, Phospho-EGFR HTRF readout. The method, then: HTRF Phospho EGFR LRCS Assay (Cellular)
BaF3-LRCS cell line were obtained from Crownbio (San Diego, CA, USA). Cells were maintained at 37° C., 5% CO2 in RPMI ATCC (Gibco 31870)+2 mM Glutamine+0.5 μg/ml Puromycin supplemented with 10% fetal bovine serum (FBS) (Gibco).
Cells are transferred as above to Greiner Bio-One, Nr. 784-08 micro-titerplate at 20000 cells/well in 12.5 μl of growth medium/well after the plates had been pre-filled with 12.5 nl of DMSO solutions of the to be tested compounds (in dose response) or DMSO only. After spinning the plates at 300×g for 30 seconds the cells were incubated for 4 hours at 37 C, 5% CO2, 95% humidity. The cells were lysed by adding to the compound mix 4 μl/well of the supplemented lysis buffer (Cis-bio, Phospho-EGFR HTRF kit, 64EG1PEH), followed by incubation for 30 min at room temperature with shaking (400 rpm). The plates were then frozen and stored overnight at −80° C. On the next day and after thawing the plates, 4 μl of a mixture of anti-Phospho-EGFR Cryptate and of anti-Phospho-EGFR-d2 antibody solutions prepared in the supplied detection buffer was added to each well. The lidded plates were then incubated for 4 h at room temperature before reading the fluorescence emission at 616 and 665 nm using an Envision reader (Perkin Elmer). Data was analyzed in similar fashion as above using the normalized ratio of the 665 to 616 signals multiplied by 10000.
Regarding `Cc1c(-c2ccc(N3CC(CN4CCC(CO)CC4)C3)cc2)cc(C(F)F)c2cn(C(C(=O)Nc3nccs3)c3ncn4c3C[C@@H](F)C4)nc12` (stereo partly drawn) [Example 19, 2-(4-(Difluoromethyl)-6-(4-(3-((4-(hydroxymethyl)piperidin-1-yl)methyl)azetidin-1-yl)phenyl)-7-methyl-211-indazol-2-yl)-2-((R)-6-fluoro-6,7-dihydro-5H-pyrrolo[1,2-c]imidazol-1-yl)-N-(thiazol-2-yl)acetamide], the half-inhibitory concentration (IC50) was 16 nM.

With `Cc1c(-c2ccc(N3CCC(O)CC3)cc2)cc(C(F)F)c2cn(C(C(=O)Nc3nccs3)c3ncn4c3C[C@@H](F)C4)nc12` (stereo partly drawn) [Example 11, 2-[4-(Difluoromethyl)-6-[4-(4-hydroxy-1-piperidyl)phenyl]-7-methyl-indazol-2-yl]-2-[(6R)-6-fluoro-6,7-dihydro-5H-pyrrolo[1,2-c]imidazol-1-yl]-N-thiazol-2-yl-acetamide], the IC50 turned out to be 10 nM.

Consider `Cc1c(-c2ccc(N3CCC(C)(O)CC3)cc2)cc(C(F)F)c2cn(C(C(=O)Nc3nccs3)c3ncn4c3C[C@@H](F)C4)nc12` (stereo partly drawn) [Example 24, 2-[4-(Difluoromethyl)-6-[4-(4-hydroxy-4-methyl-1-piperidyl)phenyl]-7-methyl-indazol-2-yl]-2-[(6R)-6-fluoro-6,7-dihydro-5H-pyrrolo[1,2-c]imidazol-1-yl]-N-thiazol-2-yl-acetamide], for which the IC50 stood at 25 nM.

Take `Cc1c(-c2ccc(CCN(C)C)cc2)cc(C(F)F)c2cn(C(C(=O)Nc3nccs3)c3ncn4c3C[C@@H](F)C4)nc12` (stereo partly drawn) [Example 4, 2-[4-(Difluoromethyl)-6-[4-[2-(dimethylamino)ethyl]phenyl]-7-methyl-indazol-2-yl]-2-[(6R)-6-fluoro-6,7-dihydro-5H-pyrrolo[1,2-c]imidazol-1-yl]-N-thiazol-2-yl-acetamide]: the half-inhibitory concentration (IC50) amounted to 11 nM.

`CCN1CC[C@@H](c2ccc(-c3cc(C(F)F)c4cn(C(C(=O)Nc5nccs5)c5ncn6c5C[C@@H](F)C6)nc4c3C)cc2)[C@H](F)C1` (single isomer, unassigned) [Example 2, 2-[4-(Difluoromethyl)-6-[4-[(3S,4S)-1-ethyl-3-fluoro-4-piperidyl]phenyl]-7-methyl-indazol-2-yl]-2-[(6R)-6-fluoro-6,7-dihydro-5H-pyrrolo[1,2-c]imidazol-1-yl]-N-thiazol-2-yl-acetamide or 2-[4-(Difluoromethyl)-6-[4-[(3R,4R)-1-ethyl-3-fluoro-4-piperidyl]phenyl]-7-methyl-indazol-2-yl]-2-[(6R)-6-fluoro-6,7-dihydro-5H-pyrrolo[1,2-c]imidazol-1-yl]-N-thiazol-2-yl-acetamide]: the IC50 is 15 nM.

As for `Cc1c(-c2ccc(CCN3CCC(O)CC3)cc2)cc(C(F)F)c2cn(C(C(=O)Nc3nccs3)c3ncn4c3C[C@@H](F)C4)nc12` (stereo partly drawn) [Example 27, 2-[4-(Difluoromethyl)-6-[4-[2-(4-hydroxy-1-piperidyl)ethyl]phenyl]-7-methyl-indazol-2-yl]-2-[(6R)-6-fluoro-6,7-dihydro-5H-pyrrolo[1,2-c]imidazol-1-yl]-N-thiazol-2-yl-acetamide], the half-maximal inhibitory concentration (IC50) stood at 28 nM.

On to `Cc1c(-c2ccc(OCCN3CCC(C(C)O)CC3)cc2)cc(C(F)F)c2cn(C(C(=O)Nc3nccs3)c3ncn4c3C[C@@H](F)C4)nc12` (stereo partly drawn) [Example 22, 2-[4-(Difluoromethyl)-6-[4-[2-[4-(1-hydroxyethyl)-1-piperidyl]ethoxy]phenyl]-7-methyl-indazol-2-yl]-2-[(6R)-6-fluoro-6,7-dihydro-5H-pyrrolo[1,2-c]imidazol-1-yl]-N-thiazol-2-yl-acetamide], for which the IC50 was determined as 30 nM.

As for `Cc1c(-c2ccc(OCCN3CCOCC3)cc2)cc(C(F)F)c2cn(C(C(=O)Nc3nccs3)c3ncn4c3C[C@@H](F)C4)nc12` (stereo partly drawn) [Example 18, 2-[4-(Difluoromethyl)-7-methyl-6-[4-(2-morpholinoethoxy)phenyl]indazol-2-yl]-2-[(6R)-6-fluoro-6,7-dihydro-5H-pyrrolo[1,2-c]imidazol-1-yl]-N-thiazol-2-yl-acetamide], the IC50 came to 28 nM.

Take `Cc1c(-c2ccc(OCCN3CCC(CO)CC3)cc2)cc(C(F)F)c2cn(C(C(=O)Nc3nccs3)c3ncn4c3C[C@@H](F)C4)nc12` (stereo partly drawn) [Example 5, 2-[4-(Difluoromethyl)-6-[4-[2-[4-(hydroxymethyl)-1-piperidyl]ethoxy]phenyl]-7-methyl-indazol-2-yl]-2-[(6R)-6-fluoro-6,7-dihydro-5H-pyrrolo[1,2-c]imidazol-1-yl]-N-thiazol-2-yl-acetamide]: the IC50 came out at 19 nM.

For `Cc1c(-c2ccc(C3CCN(CC(C)F)CC3)cc2)cc(C(F)F)c2cn(C(C(=O)Nc3nccs3)c3ncn4c3C[C@@H](F)C4)nc12` (stereo partly drawn) [Example 23, 2-[4-(Difluoromethyl)-6-[4-[1-(2-fluoropropyl)-4-piperidyl]phenyl]-7-methyl-indazol-2-yl]-2-[(6R)-6-fluoro-6,7-dihydro-5H-pyrrolo[1,2-c]imidazol-1-yl]-N-thiazol-2-yl-acetamide], the half-maximal inhibitory concentration (IC50) turned out to be 21 nM.

Take `Cc1c(-c2ccc(N3CCC(S(C)(=O)=O)CC3)cc2)cc(C(F)F)c2cn(C(C(=O)Nc3nccs3)c3ncn4c3C[C@@H](F)C4)nc12` (stereo partly drawn) [Example 16, 2-[4-(Difluoromethyl)-7-methyl-6-[4-(4-methylsulfonyl-1-piperidyl)phenyl]indazol-2-yl]-2-[(6R)-6-fluoro-6,7-dihydro-5H-pyrrolo[1,2-c]imidazol-1-yl]-N-thiazol-2-yl-acetamide]: the IC50 is 16 nM.

For `Cc1c(-c2ccc(CCN3CCC(C(C)O)CC3)cc2)cc(C(F)F)c2cn(C(C(=O)Nc3nccs3)c3ncn4c3C[C@@H](F)C4)nc12` (stereo partly drawn) [Example 14, 2-[4-(Difluoromethyl)-6-[4-[2-[4-(1-hydroxyethyl)-1-piperidyl]ethyl]phenyl]-7-methyl-indazol-2-yl]-2-[(6R)-6-fluoro-6,7-dihydro-5H-pyrrolo[1,2-c]imidazol-1-yl]-N-thiazol-2-yl-acetamide], the 50% inhibitory concentration (IC50) is 16 nM.

As to `Cc1c(-c2ccc(N3CCOCC3)cc2)cc(C(F)F)c2cn(C(C(=O)Nc3nccs3)c3ncn4c3C[C@@H](F)C4)nc12` (stereo partly drawn) [Example 1, 2-[4-(Difluoromethyl)-7-methyl-6-(4-morpholinophenyl)indazol-2-yl]-2-[(6R)-6-fluoro-6,7-dihydro-5H-pyrrolo[1,2-c]imidazol-1-yl]-N-thiazol-2-yl-acetamide], the half-inhibitory concentration (IC50) worked out at 8 nM.

On to `Cc1c(-c2ccc(CN3CCC(O)CC3)cc2)cc(C(F)F)c2cn(C(C(=O)Nc3nccs3)c3ncn4c3C[C@@H](F)C4)nc12` (stereo partly drawn) [Example 7, 2-[4-(Difluoromethyl)-6-[4-[(4-hydroxy-1-piperidyl)methyl]phenyl]-7-methyl-indazol-2-yl]-2-[(6R)-6-fluoro-6,7-dihydro-5H-pyrrolo[1,2-c]imidazol-1-yl]-N-thiazol-2-yl-acetamide], for which the IC50 came out at 14 nM.

Consider `Cc1c(-c2ccc(CCN3CCC(CO)CC3)cc2)cc(C(F)F)c2cn(C(C(=O)Nc3nccs3)c3ncn4c3C[C@@H](F)C4)nc12` (stereo partly drawn) [Example 9, 2-[4-(Difluoromethyl)-6-[4-[2-[4-(hydroxymethyl)-1-piperidyl]ethyl]phenyl]-7-methyl-indazol-2-yl]-2-[(6R)-6-fluoro-6,7-dihydro-5H-pyrrolo[1,2-c]imidazol-1-yl]-N-thiazol-2-yl-acetamide], for which the IC50 was found to be 27 nM.

As for `Cc1c(-c2ccc(CN3CCC(C(C)O)CC3)cc2)cc(C(F)F)c2cn(C(C(=O)Nc3nccs3)c3ncn4c3C[C@@H](F)C4)nc12` (stereo partly drawn) [Example 12, 2-[4-(Difluoromethyl)-6-[4-[[4-(1-hydroxyethyl)-1-piperidyl]methyl]phenyl]-7-methyl-indazol-2-yl]-2-[(6R)-6-fluoro-6,7-dihydro-5H-pyrrolo[1,2-c]imidazol-1-yl]-N-thiazol-2-yl-acetamide], the IC50 is 18 nM.

Regarding `Cc1c(-c2ccc(N3CCOC(CN(C)C)C3)cc2)cc(C(F)F)c2cn(C(C(=O)Nc3nccs3)c3ncn4c3C[C@@H](F)C4)nc12` (stereo partly drawn) [Example 26, 2-[4-(Difluoromethyl)-6-[4-[2-[(dimethylamino)methyl]morpholin-4-yl]phenyl]-7-methyl-indazol-2-yl]-2-[(6R)-6-fluoro-6,7-dihydro-5H-pyrrolo[1,2-c]imidazol-1-yl]-N-thiazol-2-yl-acetamide], the IC50 was 78 nM.

As for `Cc1c(-c2ccc(OCCN3CCC(O)CC3)cc2)cc(C(F)F)c2cn(C(C(=O)Nc3nccs3)c3ncn4c3C[C@@H](F)C4)nc12` (stereo partly drawn) [Example 10, 2-[4-(Difluoromethyl)-6-[4-[2-(4-hydroxy-1-piperidyl)ethoxy]phenyl]-7-methyl-indazol-2-yl]-2-[(6R)-6-fluoro-6,7-dihydro-5H-pyrrolo[1,2-c]imidazol-1-yl]-N-thiazol-2-yl-acetamide], the half-maximal inhibitory concentration (IC50) was 17 nM.

On to `CCN1C[C@H]2CN(c3ccc(-c4cc(C(F)F)c5cn(C(C(=O)Nc6nccs6)c6ncn7c6C[C@@H](F)C7)nc5c4C)cc3)C[C@]2(F)C1` (stereo partly drawn) [Example 25, 2-[6-[4-[(3aR,6aS)-2-Ethyl-3a-fluoro-3,4,6,6a-tetrahydro-1H-pyrrolo[3,4-c]pyrrol-5-yl]phenyl]-4-(difluoromethyl)-7-methyl-indazol-2-yl]-2-[(6R)-6-fluoro-6,7-dihydro-5H-pyrrolo[1,2-c]imidazol-1-yl]-N-thiazol-2-yl-acetamide], for which the IC50 was determined as 29 nM.
